Consider 51 compounds from US9422262B2, “Compounds and methods for treating diseases mediated by protease activated receptors” (The Broad Institute, Inc., priority 2010, dated 2016).

Some results are limits rather than exact numbers.

Tested on in one data set: not listed separately
Kind of data set: Stability in mouse plasma. It counts as in vitro ADME.
Conditions: not given
An excerpt: (§1) Since there are also situations in which longer term anticoagulation is desired, we performed further studies in the thrombus formation model to assess analogs of compound 1 that may have a more long-lived effect. […] This instability in mouse plasma may have contributed to its short half-life of efficacy in vivo.
Regarding `CC(C)CC(=O)Nc1cccc(NC(=O)c2ccccc2Br)c1` [2-bromo-N-(3-(3-methylbutanamido)phenyl)benzamide], the “remaining after 5 hour incubation in mouse plasma” value is reported as 64.6%.

For the next data set, the target named is T1, PAR1 (Homo sapiens, UniProt P25116).
T1 sequence (P25116 22-425): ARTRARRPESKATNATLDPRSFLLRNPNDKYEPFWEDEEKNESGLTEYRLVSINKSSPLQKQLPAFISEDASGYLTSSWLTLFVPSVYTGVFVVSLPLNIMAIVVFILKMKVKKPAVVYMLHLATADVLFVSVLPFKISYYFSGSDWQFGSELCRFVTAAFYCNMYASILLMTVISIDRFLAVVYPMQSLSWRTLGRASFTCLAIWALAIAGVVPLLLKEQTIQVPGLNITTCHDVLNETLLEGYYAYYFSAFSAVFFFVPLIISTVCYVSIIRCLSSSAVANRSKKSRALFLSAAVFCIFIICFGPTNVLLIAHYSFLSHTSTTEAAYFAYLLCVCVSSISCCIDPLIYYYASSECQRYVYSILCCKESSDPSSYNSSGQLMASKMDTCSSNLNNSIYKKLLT
The experiment in a line: PAR1-mediated platelet aggregation and shape change. Also noted: endogenous in cells; host or cells: platelets (platelet-rich plasma; washed platelets from individual donors). As to conditions: FIG. 3A. The data set is classed as cell-based. An excerpt: (§2) This pattern of inhibition is consistent with that of an allosteric inhibitor. […] This observation raised the possibility that compound 1 blocks PAR1 signaling through Gαq (which mediates platelet aggregation downstream of PAR1), but not Gα12/13 (which mediates shape change downstream of PAR1). A previously identified PAR1 inhibitor, 3,5-difluoro aminoisoxazole (3,5-DFAI), inhibited both shape change and aggregation. Shape change that occurred in the presence of compound 1 was blocked by the Rho kinase inhibitor Y27632, confirming participation of Rho kinase downstream of Gα12/13 in compound-1-resistance shape change (FIG. 3A). […] PAR1-mediated decrease in TER in these cells is dependent on Gα12. […] In contrast, 3,5-DFAI inhibited SFLLRN-mediated decrease in TER (FIG. 3B) and compound 1 inhibited Gαq-mediated Ca^2+ flux in these MDCK cells (FIG. 3C).
Regarding `Nc1c(F)noc1F` [3,5-DFAI, 3,5-difluoro aminoisoxazole], the PAR1-mediated platelet aggregation result is listed as “inhibited” and the “PAR1-mediated platelet shape change” value is “inhibited”.

The same data set, now with this note: in the presence of compound 1; FIG. 3A.
As for `C[C@@H](N)[C@H]1CC[C@H](C(=O)Nc2ccncc2)CC1` [Compound Y27632], the “shape change that occurred in the presence of compound 1” value was “blocked”.

A further data set deals with T2, Par1 (thrombin) receptor (Homo sapiens, UniProt P25116).
T2 construct: endogenous in cells; host or cells: platelets (platelet-rich plasma; washed platelets from individual donors)
T2 sequence (P25116 22-425): T1 sequence (P25116 22-425)
Kind of data set: SFLLRN-mediated granule secretion, platelet-rich plasma, luciferin-luciferase ATP readout (primary assay). As to conditions: Table D; read-out: Activity (measured IC50 category). The data set is classed as cell-based. As to the method: The compounds were tested in two independent IC50 determination experiments using the primary assay measuring SFLLRN-mediated granule secretion. For this assay, platelet-rich plasma is treated with putative inhibitors prior to activation by the SFLLRN peptide, which targets the Par1 (thrombin) receptor. Upon activation, platelets secrete dense granules, which are concentrated with ATP. Platelet activation and possible inhibition are monitored by a luciferin-luciferase assay (CellTiter-Glo without lysis reagent) to measure the ATP secreted from activated platelets. Luminescence measurements are made using a plate reader (Envision, PerkinElmer) capable of detecting luminescence.
Turning to `CCC(=O)Nc1cccc(NC(=O)c2ccccc2Br)c1`, the 50% inhibitory concentration (IC50) was 1 to 5 µM.
Turning to `O=C(Nc1ccccc1)c1ccccc1Br`, the IC50 lay within 1 to 5 µM.
In the case of `CC(=O)Nc1cccc(NC(=O)c2ccccc2Cl)c1`, the half-maximal inhibitory concentration (IC50) was above 10 µM.
Still for that read-out and setting: then `CC(=O)Nc1ccc(NC(=O)c2ccccc2Br)cc1`, with above 10 µM.
Consider `CCCC(=O)Nc1cccc(NC(=O)c2ccc(C(F)(F)F)cc2)c1`, for which the IC50 was above 10 µM.
The same measure, in the same setting: then `CCCC(=O)Nc1cccc(NC(=O)c2ccc(OC)cc2)c1`, with above 10 µM; and `CCCC(=O)Nc1cccc(NC(=O)c2ccc(S(C)(=O)=O)cc2)c1`, with above 10 µM; and `CCCC(=O)Nc1cccc(NC(=O)c2ccccc2C)c1`, with 0.001 to 1 µM.
Same read-out and setting: for `CCCC(=O)Nc1cccc(NC(=O)c2ccccc2F)c1` the value was 0.001 to 1 µM.
The same measure, in the same setting: then `CCCC(=O)Nc1cccc(NC(=O)c2ccccc2Cl)c1`, with 1 to 5 µM; and `CCCC(=O)Nc1cccc(NC(=O)c2cccnc2)c1`, with above 10 µM.
In the case of `CCCC(=O)Nc1cccc(NC(=O)c2cnc3ccccc3c2)c1`, the IC50 was above 10 µM.
Still for that read-out and setting: for `CCCC(=O)Nc1cccc(NC(=O)c2ccco2)c1` the value was above 10 µM.
Same read-out and setting: then `CCCC(=O)Nc1cccc(NC(=O)c2ccc(C)cc2)c1`, with above 10 µM.
For the compound `CCCC(=O)Nc1cccc(NC(=O)c2cccc(S(C)(=O)=O)c2)c1`, the IC50 is above 10 µM.
Still for that read-out and setting: for `O=C(Nc1cccc(NC(=O)C2CCCC2)c1)c1ccccc1Br` the value was 0.001 to 1 µM; for `O=C(Nc1cccc(NC(=O)c2ccccc2Br)c1)c1ccccc1`, above 10 µM.
On to `CCCC(=O)Nc1ccnc(NC(=O)c2ccccc2Br)c1`, for which the IC50 is above 10 µM.
Turning to `O=C(Nc1cc(NC(=O)C2CCCC2)ccn1)c1ccccc1Br`, the concentration for half-maximal inhibition (IC50) is above 10 µM.
Still for that read-out and setting: then `O=C(Nc1ccnc(NC(=O)c2ccccc2Br)c1)c1ccccc1`, with above 10 µM.
The same measure, in the same setting: then `CCCC(=O)Nc1cccc(N(C)C(=O)c2ccccc2Br)c1`, with above 10 µM.
For `CN(C(=O)c1ccccc1Br)c1cccc(NC(=O)C2CCCC2)c1`, the IC50 was above 10 µM.
Regarding `CCCC(=O)Nc1ccc(NC(=O)c2ccccc2Br)cc1`, the IC50 was above 10 µM.
Still for that read-out and setting: then `CCCC(=O)Nc1cccc(NC(=O)c2ccccc2C(F)(F)F)c1`, with 1 to 5 µM; and `CCCC(=O)Nc1cccc(NC(=O)c2ccccc2OC(F)(F)F)c1`, with 0.001 to 1 µM.
As for `CCCC(=O)Nc1cccc(NC(=O)c2ccccc2C(=O)N(C)C)c1`, the IC50 was above 10 µM.
Turning to `CCCC(=O)Nc1cccc(NC(=O)c2ccccc2-c2ccccc2)c1`, the IC50 was above 10 µM.
Still for that read-out and setting: then `CCCC(=O)Nc1cccc(NC(=O)c2ccccc2CC)c1`, with 0.001 to 1 µM; and `CCCC(=O)Nc1cccc(NC(=O)c2c(C)cccc2C)c1`, with 1 to 5 µM.
On the same count and under the same terms, then `CCCC(=O)N(C)c1cccc(NC(=O)c2ccccc2Br)c1`, with above 10 µM; and `CCOC(=O)Nc1cccc(NC(=O)c2ccccc2Br)c1`, with 1 to 5 µM.
Same read-out and setting: then `Cc1ccccc1C(=O)Nc1cccc(NC(=O)CC(C)C)c1`, with 1 to 5 µM; and `CCCC(=O)Nc1ccc(Cl)c(NC(=O)c2ccccc2C)c1`, with above 10 µM.
`CCCC(=O)Nc1ccc(Cl)c(NC(=O)c2ccccc2Br)c1`: the concentration for half-maximal inhibition (IC50) is above 10 µM.
Still for that read-out and setting: then `CCC(=O)Nc1cc(NC(=O)c2ccccc2C)ccc1C`, with above 10 µM; and `CCCNC(=O)c1cccc(NC(=O)c2ccccc2Cl)c1`, with 1 to 5 µM.
Still for that read-out and setting: for `CCCCNc1cccc(NC(=O)c2ccccc2Br)c1` the value was 0.001 to 1 µM.
Same read-out and setting: then `CCCC(=O)Nc1cccc(NCc2ccccc2Br)c1`, with above 10 µM; and `CCCC(=O)Nc1cccc(NC(=O)c2ccccc2S(C)(=O)=O)c1`, with above 10 µM; and `CCCC(=O)Nc1cccc(NC(=O)c2cc(C)ccc2Br)c1`, with 0.001 to 1 µM.
On to `CCCC(=O)Nc1cccc(NC(=O)c2ccc(F)cc2Br)c1`, for which the concentration for half-maximal inhibition (IC50) lay in the range of 0.001 to 1 µM.
Same read-out and setting: for `CCCC(=O)Nc1cccc(NC(=O)c2cc(F)ccc2Br)c1` the value was 0.001 to 1 µM; for `CCCC(=O)Nc1cccc(NC(=O)c2cc(Cl)ccc2Br)c1`, 0.001 to 1 µM; for `CCC(C)(C)C(=O)Nc1cccc(NC(=O)c2ccccc2Br)c1`, above 10 µM.
Same read-out and setting: for `CCCC(=O)Nc1cccc(NC(=O)c2cccc(Cl)c2Cl)c1` the value was 1 to 5 µM; for `CCCC(=O)Nc1cccc(NC(=O)c2c(Cl)cccc2Br)c1`, 1 to 5 µM; for `CCCC(=O)Nc1cccc(NC(=O)c2ccccc2Br)c1` [drawing 135], 0.001 to 1 µM.
Take `CC(C)CC(=O)Nc1cccc(NC(=O)c2ccccc2Br)c1` [drawing 174]: the IC50 lay within 0.001 to 1 µM.

The subject of another data set is Gα12 signaling downstream of PAR1. The experiment in a line: PAR1-mediated transmembrane resistance (TER) in MDCK cells overexpressing Gα12. As to conditions: FIG. 3B. The data set is classed as cell-based.
Source text: as §2
For the compound `Nc1c(F)noc1F` [3,5-DFAI, 3,5-difluoro aminoisoxazole], the “PAR1-mediated (SFLLRN) change in TER” value is reported as “inhibited”.

The subject of the next data set is thrombus formation. Kind of data set: Thrombus formation following laser-induced injury of the cremaster arteriole in mice. It counts as in vivo. As to conditions: single infusion of 5 mg/kg, FIG. 5A.
Source text: PAR1 is the thrombin receptor on human platelets and serves an important function in mediating thrombus formation. We tested compound 1 to determine whether it inhibited thrombus formation following laser-induced injury of the cremaster arteriole in mice. The dominant PAR receptor on mouse platelets is PAR4. However, since compound 1 acts at a non-orthosteric site and mouse PAR4 differs from human PAR4, we reasoned that compound 1 may be able to block mouse PAR4. […] When infused into mice at a concentration of 5 mg/kg, compound 1 inhibited platelet accumulation during thrombus formation by >90% (FIG. 4B). Infusion of 5 mg/kg also impaired fibrin generation during thrombus formation (FIG. 4C). Thus, compound 1 blocks both cellular- and coagulation protein-mediated arms of thrombus formation. […] The compound was therefore infused every 30 minutes during the course of these experiments. The short half-life of compound 1 in vivo may be useful in scenarios in which anticoagulation is only required for a short period of time or when anticoagulation needs to be reversed quickly, such as anticoagulation prior to invasive procedures or surgery.
as §1
On to `CC(C)CC(=O)Nc1cccc(NC(=O)c2ccccc2Br)c1` [2-bromo-N-(3-(3-methylbutanamido)phenyl)benzamide], for which the “impairment of platelet accumulation during thrombus formation” value was above 90%.

Still in this data set, the particulars now being: single infusion of 5 mg/kg, FIG. 5B.
For the compound `CC(C)CC(=O)Nc1cccc(NC(=O)c2ccccc2Br)c1` [2-bromo-N-(3-(3-methylbutanamido)phenyl)benzamide], the “impairment of fibrin generation during thrombus formation” value was above 90%.
